What was measured:
NUAK2 (h) = target: T1, NUAK2 (h) (Homo sapiens, UniProt Q9H093); assay: NUAK2 enzymatic assay (radiometric, Eurofins); assay type: biochemical; conditions: full-length recombinant enzyme
T1 construct: This assay was done radiometrically using full-length, recombinant enzyme; purchased Eurofins
T1 sequence (Q9H093 1-628): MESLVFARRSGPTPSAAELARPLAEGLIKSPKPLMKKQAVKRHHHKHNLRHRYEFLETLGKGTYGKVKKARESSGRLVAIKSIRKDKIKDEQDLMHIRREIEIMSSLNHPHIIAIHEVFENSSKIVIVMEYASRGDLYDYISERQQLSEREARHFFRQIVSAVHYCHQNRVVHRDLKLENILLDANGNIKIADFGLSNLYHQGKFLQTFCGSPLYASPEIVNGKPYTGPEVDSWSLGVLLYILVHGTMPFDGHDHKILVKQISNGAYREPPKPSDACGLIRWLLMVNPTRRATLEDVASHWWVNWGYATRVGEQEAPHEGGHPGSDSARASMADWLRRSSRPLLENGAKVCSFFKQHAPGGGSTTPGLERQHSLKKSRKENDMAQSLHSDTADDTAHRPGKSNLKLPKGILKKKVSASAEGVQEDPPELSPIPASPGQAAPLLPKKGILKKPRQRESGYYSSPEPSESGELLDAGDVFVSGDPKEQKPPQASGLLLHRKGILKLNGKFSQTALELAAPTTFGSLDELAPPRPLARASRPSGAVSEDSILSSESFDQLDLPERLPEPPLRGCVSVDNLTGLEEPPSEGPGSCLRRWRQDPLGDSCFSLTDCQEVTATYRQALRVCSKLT
Procedure, shortened: (§1)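 Full-length recombinant NUAK2 incubated 40 min at room temperature in 8 mM MOPS pH 7.0, 0.2 mM EDTA, 10 mM magnesium acetate, 300 μM peptide substrate and 33P-ATP. Stopped with 0.5% phosphoric acid; filter-bound label counted by scintillation. IC50 reported as ranges; NUAK1 and Aurora A served as counter-screens.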

NUAK1 = target: T2, NUAK1 (Homo sapiens, UniProt O60285); assay: Counter-screen against NUAK1; assay type: biochemical
T2 sequence (O60285 1-661): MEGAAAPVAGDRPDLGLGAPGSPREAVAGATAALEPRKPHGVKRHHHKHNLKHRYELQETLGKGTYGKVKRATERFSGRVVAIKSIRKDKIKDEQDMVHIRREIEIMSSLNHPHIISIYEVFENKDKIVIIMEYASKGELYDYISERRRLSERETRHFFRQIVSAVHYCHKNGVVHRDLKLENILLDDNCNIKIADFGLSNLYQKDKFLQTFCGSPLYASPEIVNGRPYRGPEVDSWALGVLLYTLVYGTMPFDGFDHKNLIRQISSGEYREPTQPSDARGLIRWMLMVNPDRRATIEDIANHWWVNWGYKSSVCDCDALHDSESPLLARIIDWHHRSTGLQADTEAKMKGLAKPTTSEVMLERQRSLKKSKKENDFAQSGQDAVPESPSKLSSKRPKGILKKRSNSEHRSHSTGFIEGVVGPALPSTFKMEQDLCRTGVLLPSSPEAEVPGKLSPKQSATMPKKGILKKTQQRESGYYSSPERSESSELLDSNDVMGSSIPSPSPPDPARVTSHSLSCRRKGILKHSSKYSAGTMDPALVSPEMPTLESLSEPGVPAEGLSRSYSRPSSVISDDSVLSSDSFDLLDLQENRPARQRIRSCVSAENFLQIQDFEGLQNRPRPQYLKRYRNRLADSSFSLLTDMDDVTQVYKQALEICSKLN
Procedure, shortened: as §1

Aurora A = target: T3, Aurora A (Homo sapiens, UniProt O14965); assay: Counter-screen against Aurora A; assay type: biochemical; conditions: read-out: AUR-A (IC50)
T3 sequence (O14965 1-403): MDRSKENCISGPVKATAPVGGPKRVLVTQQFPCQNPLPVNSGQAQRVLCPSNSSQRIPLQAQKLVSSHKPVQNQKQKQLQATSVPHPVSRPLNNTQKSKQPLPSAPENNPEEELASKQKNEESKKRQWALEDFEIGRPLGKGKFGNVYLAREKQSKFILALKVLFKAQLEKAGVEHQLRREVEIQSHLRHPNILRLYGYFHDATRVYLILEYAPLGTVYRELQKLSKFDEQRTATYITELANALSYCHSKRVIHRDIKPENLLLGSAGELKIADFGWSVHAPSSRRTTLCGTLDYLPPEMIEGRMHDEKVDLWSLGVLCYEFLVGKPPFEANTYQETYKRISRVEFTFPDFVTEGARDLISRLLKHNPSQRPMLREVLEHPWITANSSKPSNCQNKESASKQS
Procedure, shortened: as §1

MDA-MB-231 cells = assay: Tumor cell growth inhibition assay (ATPlite, 5 days); assay type: cell-based; conditions: Homo sapiens, 120 h; breast tumor cell line MDA-MB-231, 5 days
Protocol: MDA-MB-231 cells were seeded into a 384-well plate at 1,000 cells/well in 50 μl medium (Alpha-MEM containing 10% FBS, […] Normocin, Invivogen and […] Gentamycin, Invitrogen). Plates were then incubated overnight for the cells to attach. An HP D300 digital dispenser was used to dose cells with DMSO or test compounds across a 16-point range of concentrations (high dose of 10 uM to low dose of 5 nM). Plates were incubated in a humidified 5% CO2 incubator at 37° C. After 5 days, plates were removed from the incubator and equilibrated to room temperature. An equal volume of ATPlite assay reagent was then added to each well, and samples processed according to manufacturer's instructions (Perkin Elmer). Luminescent signals were then measured using an Envision plate reader equipped with a US-Luminescence detector.

SMILES	IC50 (NUAK2 (h)) [nM]	IC50 (NUAK1) [nM]	IC50 (Aurora A) [nM]	IC50 (MDA-MB-231 cells) [nM]
COc1cc2c(cc1Nc1ncc(C(F)(F)F)c(Nc3cccc4c3C(=O)NC4)n1)CCNC2 [Compound I-27]	11 to 100	11 to 100	> 1000	36
CCN1CCN(C2CCN(c3ccc(Nc4ncc(C(F)(F)F)c(Nc5cccc6c5C(=O)NC6)n4)c(OC(F)F)c3)CC2)CC1 [Compound I-33, 7-((2-((2-(difluoromethoxy)-4-(4-(4-ethylpiperazin-1-yl)piperidin-1-yl)phenyl)amino)-5-(trifluoromethyl)pyrimidin-4-yl)amino)isoindolin-1-one]	11 to 100	11 to 100	101 to 1000	38
O=C1NCc2cccc(Nc3nc(Nc4ccc(N5CCC6(CCNCC6)CC5)cc4OC(F)F)ncc3Cl)c21 [Compound I-77, 7-((5-chloro-2-((2-(difluoromethoxy)-4-(3,9-diazaspiro[5.5]undecan-3-yl)phenyl)amino)pyrimidin-4-yl)amino)isoindolin-1-one]	11 to 100	11 to 100	101 to 1000	
CCN1CCN(c2ccc(Nc3ncc(C(F)(F)F)c(Nc4cccc5c4C(=O)NC5)n3)c(OC(F)F)c2)CC1 [Compound I-78, 7-((2-((2-(difluoromethxoy)-4-(4-ethylpiperazin-1-yl)phenyl)amino)-5-(trifluoromethyl)pyrimidin-4-yl)amino)isoindolin-1-one]	0.1 to 10	11 to 100	101 to 1000	
CN1CCN(c2ccc(Nc3ncc(C(F)(F)F)c(Nc4cccc5c4C(=O)NC5)n3)c(OC(F)F)c2)CC1 [Compound I-79, 7-((2-((2-(difluoromethxoy)-4-(4-methylpiperazin-1-yl)phenyl)amino)-5-(trifluoromethyl)pyrimidin-4-yl)amino)isoindolin-1-one]	0.1 to 10	11 to 100	101 to 1000	
CCN1CCN(C2CCN(c3ccc(Nc4ncc(Cl)c(Nc5cccc6c5C(=O)NC6)n4)c(OC(F)F)c3)CC2)CC1 [Compound I-80, 7-((5-chloro-2-((2-(difluoromethoxy)-4-(4-(4-ethylpiperazin-1-yl)piperidin-1-yl)phenyl)amino)pyrimidin-4-yl)amino)isoindolin-1-one]	11 to 100	11 to 100	101 to 1000	
CC(C)N1CCN(C2CCN(c3ccc(Nc4ncc(Cl)c(Nc5cccc6c5C(=O)NC6)n4)c(OC(F)F)c3)CC2)CC1 [Compound I-81, 7-((5-chloro-2-((2-(difluoromethoxy)-4-(4-(4-isopropylpiperazin-1-yl)piperidin-1-yl)phenyl)amino)pyrimidin-4-yl)amino)isoindolin-1-one]	11 to 100	11 to 100	101 to 1000	
CN1C[C@@H]2C[C@H]1CN2c1ccc(Nc2ncc(C(F)(F)F)c(Nc3cccc4c3C(=O)NC4)n2)c(OC(F)F)c1 [Compound I-82, 7-((2-((2-(difluoromethoxy)-4-((1S,4S)-5-methyl-2,5-diazabicyclo[2.2.1]heptan-2-yl)phenyl)amino)-5-(trifluoromethyl)pyrimidin-4-yl)amino)isoindolin-1-one]	0.1 to 10	11 to 100	101 to 1000	
Cc1cnc(Nc2ccc(N3CCN(C)CC3)cc2OC(F)F)nc1Nc1cccc2c1C(=O)NC2 [Compound I-83, 7-((2-((2-(difluoromethoxy)-4-(4-methylpiperazin-1-yl)phenyl)amino)-5-methylpyrimidin-4-yl)amino)isoindolin-1-one]	0.1 to 10	11 to 100	> 1000	

Second part, the compound after the results:

IC50 (NUAK2 (h)) [nM]	IC50 (NUAK1) [nM]	IC50 (Aurora A) [nM]	IC50 (MDA-MB-231 cells) [nM]	SMILES
0.1 to 10	11 to 100	101 to 1000		O=C1NCc2cccc(Nc3nc(Nc4ccc(N5[C@@H]6CC[C@H]5CNC6)cc4OC(F)F)ncc3C(F)(F)F)c21 [Compound I-70, 7-((2-((4-((1R,5S)-3,8-diazabicyclo[3.2.1]octan-8-yl)-2-(difluoromethoxy)phenyl)amino)-5-(trifluoromethyl)pyrimidin-4-yl)amino)isoindolin-1-one]
0.1 to 10	11 to 100	101 to 1000		O=C1NCc2cccc(Nc3nc(Nc4ccc(N5C[C@H]6C[C@@H]5CN6)cc4OC(F)F)ncc3C(F)(F)F)c21 [Compound I-71, 7-((2-((4-((1R,4R)-2,5-diazabicyclo[2.2.1]heptan-2-yl)-2-(difluoromethoxy)phenyl)amino)-5-(trifluoromethyl)pyrimidin-4-yl)amino)isoindolin-1-one]
0.1 to 10	11 to 100	101 to 1000		O=C1NCc2cccc(Nc3nc(Nc4ccc(N5C[C@H]6C[C@@H]5CN6)cc4OC(F)F)ncc3Cl)c21 [Compound I-72, 7-((2-((4-((1R,4R)-2,5-diazabicyclo[2.2.1]heptan-2-yl)-2-(difluoromethoxy)phenyl)amino)-5-chloropyrimidin-4-yl)amino)isoindolin-1-one]
0.1 to 10	0.1 to 10	101 to 1000		CC(C)N1C[C@@H]2C[C@H]1CN2c1ccc(Nc2ncc(C(F)(F)F)c(Nc3cccc4c3C(=O)NC4)n2)c(OC(F)F)c1 [Compound I-73, 7-((2-((2-(difluoromethoxy)-4-((1S,4S)-5-isopropyl-2,5-diazabicyclo[2.2.1]heptan-2-yl)phenyl)amino)-5-(trifluoromethyl)pyrimidin-4-yl)amino)isoindolin-1-one]
0.1 to 10	11 to 100	101 to 1000		O=C1NCc2cccc(Nc3nc(Nc4ccc(N5CCCNCC5)cc4OC(F)F)ncc3Cl)c21 [Compound I-74, 7-((2-((4-(1,4-diazepan-1-yl)-2-(difluoromethoxy)phenyl)amino)-5-chloropyrimidin-4-yl)amino)isoindolin-1-one]
0.1 to 10	0.1 to 10	0.1 to 10		O=C1NCc2cccc(Nc3nc(Nc4ccc(N5[C@@H]6CC[C@H]5CNC6)cc4OC(F)F)ncc3Cl)c21 [Compound I-75, 7-((2-((4-((1R,5S)-3,8-diazabicyclo[3.2.1]octan-8-yl)-2-(difluoromethoxy)phenyl)amino)-5-chloropyrimidin-4-yl)amino)isoindolin-1-one]
0.1 to 10	11 to 100	101 to 1000		O=C1NCc2cccc(Nc3nc(Nc4ccc(N5C[C@H]6CNC[C@H]6C5)cc4OC(F)F)ncc3Cl)c21 [Compound I-76, 7-((5-chloro-2-((2-(difluoromethoxy)-4-((3aR,6aS)-hexahydropyrrolo[3,4-c]pyrrol-2(1H)-yl)phenyl)amino)pyrimidin-4-yl)amino)isoindolin-1-one]
